From patent US20080119530A1, “Method for treatment and prevention of ultraviolet light induced skin pathologies” (priority 2006, published 2008)

How the values were obtained:
primary keratinocytes = conditions: cited from earlier work
Tg.AC mice = experiment: UV-induced skin tumorigenesis in v-rasHa transgenic Tg.AC mice; assay type: in vivo, mouse
Description: Animals. Homozygous v-rasHa transgenic mice on an FVB/N background were used in in vivo experiments. To obtain keratinocytes with genetic ablation of Erbb2, loxP sites were inserted flanking exon 2 of Erbb2 such that splicing from exon1 to downstream introns upon Cre recombinase expression creates a frameshift mutation. Mice were maintained in our animal facility and provided with Purina lab chow (Nestle Purina PetCare, St. Louis, Mo.) and water ad libitum. The dorsal skin was clipped one day before treatment using electric clippers (Wahl, Sterling, II) and shaved on the day of treatment with a Remington Microscreen shaver (Madison, N.C.). […] The Ultraviolet-B TL 40W/12 RS bulbs (Philips, Somerset, N.J.) used emitted approximately 30% UVA, 70% UVB and <1% UVC, with a total output of 470 μW/cm^2, as measured with radiometric photodetector probes (Newport, Irvine, Calif.). For tumor experiments, homozygous Tg.AC mice were treated and exposed twice with an interval of 7 d. Tumor number was counted and tumor volume measured weekly using calipers. Skin-fold thickness was measured using calipers (Mitutoyo, Aurora, Ill.) to lightly pinch the dorsal skin. All animal procedures were performed in accordance with American Association of Laboratory Animal Care guidelines and approved by Creighton University's Institutional Animal Care and Use Committee.
Statistical methods. The tumor experiment was analyzed using two-way ANOVA. Statistical significance in other experiments was assessed using two-way ANOVA or Student's t-test with Bonferroni post-test. All experiments, excluding the tumor experiment, were replicated several times and consistent results obtained.
The skin tumorigenesis experiment was performed in v-ras^Ha transgenic Tg.AC mice because of their enhanced sensitivity to UV-induced skin tumorigenesis (13; 52). […] While the vehicle-treated mice continued to accrue tumors throughout the duration of the experiment, the AG825-treated group reached a plateau in tumor number by 7 weeks after the first UV exposure. By the end of the experiment, mean tumor volume was also 70% less in the AG825-treated group when compared to the vehicle control. Representative tumors from each treatment were examined histologically and all were benign squamous papillomas with similar differentiation status.
Upon activation, Erbb2 heterodimerizes with either EGFR or Erbb3 to transduce signals. Support for the hypothesis that Erbb2 increases skin carcinogenesis comes from our investigations of the functions of its dimerization partner EGFR. A tumor study was conducted to assess the role of EGFR in the clonal expansion of transformed cells to form benign tumors in the skin of v-ras^Ha transgenic Tg.AC mice. Inhibition of EGFR with the tyrphostin inhibitor AG1478 decreased the number of tumors that developed by about 50% in UV-exposed v-rasHa transgenic mice. Mean tumor volume was 80% less upon inhibition of EGFR-mediated signaling when compared to, UV-exposed and vehicle-treated controls.

Cdc25a = Cdc25a immunoblotting in keratinocytes; assay type: cell-based, mouse; conditions: vs appropriate controls
Procedure: Immunoblotting. Flash frozen skin was ground with a mortar and pestle on dry ice, homogenized in lysis buffer containing 10 mM Tris (pH 7.4), 150 mM NaCl, 10% glycerol, 1% Triton X-100, 1 mM EDTA, Complete Protease Inhibitor Cocktail (Roche, Germany), 1 mM Na3V O4, 1.5 μM EGTA, and 10 μM NaF. Protein was quantified using the Coomassie Brilliant Blue G-250 protein assay (Bio-Rad, Hercules, Calif.). The evenness of loading and transfer was determined by staining with Ponceau S and by actin immunoblotting. […]
Cell culture. […] Transfection efficiency was quantified by determining the proportion of the cells that incorporated the fluorescent Cy3-conjugated siRNA or GFP one day post-transfection. […]
In order to understand how Erbb2 regulates S-phase progression following UV irradiation, signaling pathways known to regulate progression into and through S-phase were examined. […] The effect of abrogation of Erbb2 on Cdc25a occurred post-transcriptionally, since no decrease in Cdc25a mRNA was detected in our microarray analysis using the Erbb2 inhibitor (32). […]

[1] = current Erbb2-targeted therapies; cited from earlier work

Compound	S-phase arrest in keratinocytes by chemotherapeutic agents (primary keratinocytes)	skin toxicity [1]	also measured
O=c1[nH]cc(F)c(=O)[nH]1 [5-FU, 5-fluorouracil]	cause S-phase arrest	–	–
COc1cc2ncnc(Nc3cccc(Cl)c3)c2cc1OC [AG1478]	–	–	mean tumor volume less than UV-exposed vehicle-treated controls (Tg.AC mice; EGFR inhibition): 80%; decrease in the number of tumors that developed (Tg.AC mice; UV-exposed v-rasHa transgenic mice, EGFR inhibition): about 50%; UV-induced carcinogenesis (FIG. 6) (Tg.AC mice; topical treatment 2 h prior to UV irradiation): suppress; Cdc25a immunoreactivity (Cdc25a): not decreased
COCC(=O)NC/C=C/c1ccc2ncnc(Nc3ccc(Oc4ccc(C)nc4)c(C)c3)c2c1 [CP-724714]	–	Low incidence	–
CC[C@@]1(O)C(=O)OCc2c1cc1n(c2=O)Cc2cc3ccccc3nc2-1 [camptothecin]	cause S-phase arrest	–	–
pertuzumab: current Erbb2-targeted therapy	–	Low incidence	–
